Tests used:
AKT = assay: Phosphorylation of AKT on Thr308 in L6 cells, Western blot; assay type: cell-based, rat; details: FIG. 1(b)
Experimental: (§1) […] muscle myoblast cells (L6) was a generous gift from Professor Hitoshi Ashida's Lab. (Kobe University, Kobe, Japan). The cells were grown and maintained in α-minimal essential medium (α-MEM, 12000022, GIBCO, CA, USA) containing 10% fetal bovine serum (FBS, GIBCO) and 1% penicillin streptomycin (GIBCO) in a cell culture incubator with 5% CO2 at 37° C. Prior to the following experiments, the cells were seeded and cultured at a density of 8×10^3 cells per well in 96-well plates or 2.5×10^5 cells per well in 6-well plates. After the myoblasts achieved 80% confluence, the cells were incubated for 5 days in the α-MEM supplemented with 2% FBS to induce differentiation to myotubes.
The L6 cells were fully differentiated with α-MEM supplemented with 2% FBS for 5 days to myotubes. The cells were washed twice with PBS containing 0.1% BSA and subsequently incubated α-MEM containing 0.25% BSA with or without 100 nM of S961, and then treated with or without 100 μM of Tetracosanol for 90 min. Then, the cells were treated with or without 10 μM of insulin for 30 min. Finally, the cells were collected and washed twice in KRH buffer, then lysed in ice-cold RIPA buffer for 60 min. After centrifugation at 12,000×g for 30 min. at 4° C., the supernatant was kept at −80° C. until use. The levels of the proteins including phospho-AKT (Thr308), AKT, phospho-AMPK (Thr172), and AMPK (Cell Signaling) were detected and evaluated by Western blot with primary antibody.
The cells after treatments were collected and washed twice in cold KRH buffer, and then lysed in ice-cold RIPA buffer incubation at 4° C. for 60 min. After centrifugation at 12,000×g for 30 min at 4° C., the supernatant was kept and quantified by Bradford protein assay (Bio-Rad, Hercules, Calif., USA). The proteins were separated using sodium dodecyl sulfate polyacrylamide gel electrophoresis (SDS-PAGE) and subsequently transferred to PVDF (Perkin Elmer Life Sciences, Boston, Mass., USA) membrane. […] The signals were monitored using Western Lightning™ Plus-ECL (Perkin Elmer Life Sciences) and the PVDF membrane was exposed to Luminescent image analyzer (LAS)-3000 (Fujifilm, Minato, Tokyo, Japan). Acquired data were analyzed and compared the difference among treatments.
The differentiated L6 cells were incubated with 100 μM of tetracosanol (Tet) at 37° C. for 90 min, and then treated 10 μM of insulin (Ins) at 37° C. for 5 or 30 min. The cell lysates were separated by SDS-PAGE and blotted 5 min for phospho-Insr on Tyr1158, 1162, and 1163 (Insr, 100 kDa), and phospho-AKT on Thr308 protein level was measured at 30 min in Western blot analysis.

AMPK = assay: Phosphorylation of AMPK on Thr172 in L6 cells, Western blot; assay type: cell-based, mouse; details: 100 μM tetracosanol 90 min, then 10 μM insulin 30 min, FIG. 2
Experimental: as §1
The L6 cells were fully differentiated with α-MEM supplemented with 2% FBS for 5 days to myotubes. […] The levels of the proteins including phospho-AKT (Thr308), AKT, phospho-AMPK (Thr172), and AMPK (Cell Signaling) were detected and evaluated by Western blot with primary antibody.
The cells after treatments were collected and washed twice in cold KRH buffer, and then lysed in ice-cold RIPA buffer incubation at 4° C. for 60 min. After centrifugation at 12,000×g for 30 min at 4° C., the supernatant was kept and quantified by Bradford protein assay (Bio-Rad, Hercules, Calif., USA). […] Acquired data were analyzed and compared the difference among treatments. […]

L6 myotubes = assay: Glucose uptake assay (2-deoxyglucose) in L6 myotubes; assay type: cell-based, rat; details: FIG. 4
Experimental: as §1
The glucose uptake assay was followed the study disclosed in Yamamoto et al. (“An enzymatic fluorimetric assay to quantitate 2-deoxyglucose and 2-deoxyglucose-6-phosphate for in vitro and in vivo use.” Anal Biochem 404(2): 238-240, 2010) with minor modification and the technique generously assistant from Professor Hitoshi Ashida's Lab (Kobe University, Kobe, Japan). […] Uptake of 2DG into the cells was measured by the enzymatic fluorescence assay. The fluorescence assay buffer was composed of 50 mM TEA buffer, 0.1% BSA, 2.5 mM β-NADP (Wako Pure Chemical, Osaka, Japan), 0.05 unit Diaphorase (Wako), 150 unit/L. mesenteriodes G6PDH (sigma), and 0.5 mM Resazurin sodium salt (sigma). […]

## CCCCCCCCCCCCCCCCCCCCCCCCO [tetracosanol]
AKT; 100 μM tetracosanol (Tet) alone, 90 min
  phospho-AKT on Thr 308: did not
AKT; insulin plus both S961 and tetracosanol (Ins+S961+Tet)
  phospho-AKT on Thr 308: induced the phospho-AKT on Thr 308
AKT; insulin plus tetracosanol (Ins+Tet): 100 μM tetracosanol 90 min, then 10 μM insulin 30 min
  phospho-AKT on Thr 308: induced the phospho-AKT on Thr 308
AMPK
  insulin-independent GLUT4 translocation response (phospho-AMPK on Thr172): no insulin-independent GLUT4 translocation response
L6 myotubes; 1 μM insulin plus 400 nM S961 and 10 μM tetracosanol (Ins+S961+Tet) versus Ins+Tet
  cell glucose uptake: synergistic effect
L6 myotubes; 10 μM tetracosanol with 1 μM insulin (Ins+Tet)
  cell glucose uptake: enhanced the cell glucose uptake

From US9226950B2, “Method and composition for treating diabetes mellitus” (National Dong Hwa University, priority 2013, dated 2016)
